In patent publication US7521395B2, “Synergistically acting herbicidal mixtures” (BASF Aktiengesellschaft, priority 2002, dated 2009):

Columns and labels:
Test in all cases: Herbicidal action, post-emergence treatment, field trial
Type in all cases: in vivo
Conditions in all cases: application rate 1250 g/ha ai, scale 0 = no damage, 100 = complete destruction
[1] = test system: Sorghum halepense
Description: (§1) The mixtures according to the invention were applied pre- or post-emergence (foliar treatment). The herbicidal compounds of component B and of component C were applied in the formulation in which they are present as commercially available product.
(§2) The herbicidally active compounds of components A), B) and C) were applied in succession or jointly, in the latter case in some cases as a tank mix and in some cases as a readymix, in the form of emulsions, aqueous solutions or suspensions, the vehicle being water (300-400 l/ha). In the case of the field trials, application was effected with the aid of a mobile plot sprayer.
(§3) The test period extended over 3 to 8 weeks, and the stands were also observed at later points in time.
(§4) Damage by the herbicidal compositions was evaluated with reference to a scale of 0% to 100% in comparison with untreated control plots. 0 means no damage and 100 means complete destruction of the plants.
(§5) In these examples, the value E at which only an additive effect of the individual active ingredients is to be expected was calculated by the method of S. R. Colby (Calculating synergistic and antagonistic responses of herbicide combinations, Weeds 15, 20 pp (1967)).
(§6) This was done using the formula
(§7) [formula] where • X=Percentage of the herbicidal action of component X) at an application rate of x; • Y=Percentage of the herbicidal action of component Y) at an application rate of y; • E=expected herbicidal action of component X)+Y) at rates of application x+y (in %).
(§8) If the value observed exceeds the value E calculated in accordance with Colby's formula, then synergism is present.

[2] = test system: Anoda cristata
Description: as §1, §2, §3, §4, §5, §6, §7, §8

[3] = test system: Tagetes minuta
Description: as §1, §2, §3, §4, §5, §6, §7, §8

CCNc1nc(Cl)nc(NC(C)C)n1 [atrazine]
Sorghum halepense Damage [%] [1]: 10% | Anoda cristata Damage [%] [2]: 70% | Tagetes minuta Damage [%] [3]: 50%
